Reference: patent publication US20060154871A1, “Peptides” (ReGen Therapeutics PIc, priority 1999, published 2006)

Test system: rabbits
Assay: Serum antibody titre by ELISA against the corresponding synthetic peptide antigen, before and after the 10 week immunisation of rabbits
Type: in vivo, rabbit
Details: for Titre: (Serum Dilution) Post Immunization R1: rabbit R1, after 10 week immunisation protocol, 200 μg peptide conjugate per inoculation; for Titre: (Serum Dilution) Pre Immunization R1: rabbit R1, pre immunization serum, ELISA with synthetic peptide antigen; for antigenic response: rabbits R1 and R2, summary of Table 6
Text: To each N-terminal end of the synthetic peptides, L-cysteine was attached, and the peptide was formed into a ring so that the cysteine group lay between the N-terminal and the C-terminal ends of the synthetic peptide. This facilitated peptide conjugation with Keyhole Hemolymph (KHL). The shorter peptides (i.e. those containing 9 or fewer amino acids) were artificially elongated with biologically inert amino acids prior to attaching the L-cysteine. This was done in order to facilitate annealing and increase the antigenicity of the shorter peptides.
For immunisation, two young adult rabbits (5-6 months old, weighing 5-6 lbs [2.3-2.7 kg]) were used. Each antigen (i.e., each synthetic peptide) was given subcutaneously and intramuscularly in 0.1 ml injections at ten different sites. The protocol used followed the following sequence:
The level of antibodies in the serum was established by ELISA (enzyme-linked immunosorbent assay) with the corresponding synthetic peptide antigen. This technique involved the following steps: • 1. The antigen was diluted with a 0.1 M bicarbonate buffer (pH 9.0) to yield a 10 μg of antigen/ml solution. A volume of 50 μl of this solution was placed into each microwell of a 96 well plate. • 2. The plates were covered and incubated at 37° C. for 3 hours. • 3. The wells were washed with a coupling buffer and blocked using 200 μl of Pierce standard solution of BSA (bovine serum albumin). • 4. 50 μl of dilutent BSA (0.75% soln.) was pipetted into each well. 50 μl of antibody serum sample diluted 1:100 in dilutent BSA were placed in lane A of each row. • 5. 1:2 serial dilutions were performed moving down the plate. • 6. The plates were covered and incubated at room temperature for 60 minutes. • 7. The plates were washed four times with PBS wash solution. • 8. A volume of 50 μl of goat anti-rabbit IgG (H&L) HRP conjugate at 1:1000 dilution in BSA was pipetted into each well and incubated at room temperature for 60 minutes (H&L=heavy and light chain; HRP=horseradish peroxidase). • 9. The plates were washed four times with PBS wash solution. • 10. A volume of 50 μl of substrate solution 2,2′-azino-bis(3-ethylbenzothiazoline-6-sulfonic acid)-diammonium salt (ABTS available from Pierce, which is used to help visualise the extent of the antibody/antigen reaction) was pipetted into each well and incubated at room temperature for about 2 minutes. • 11. The reaction was stopped by adding 50 μl of 1% SDS (sodium dodecyl sulfate) into each well. • 12. The wells were then read on a dynoplate reader at 405.
The data presented in Table 6 show the serum antibody titers against specific antibodies after the 10 week immunisation protocol.

SEEMP [Peptide B-3]
Titre: (Serum Dilution) Post Immunization R1: 25600
Titre: (Serum Dilution) Pre Immunization R1: 0

MPQNFYKLPQM [Peptide A-2, Colostrinin peptide of unknown precursor]
Titre: (Serum Dilution) Post Immunization R1: 6400
Titre: (Serum Dilution) Pre Immunization R1: 0

KYKLQPE [Peptide B-2, Colostrinin peptide (possibly) having β-casein homologue precursor]
Titre: (Serum Dilution) Post Immunization R1: 25600
Titre: (Serum Dilution) Pre Immunization R1: 0

MQPPPLP [Peptide B-9, Colostrinin peptide (possibly) having β-casein homologue precursor]
Titre: (Serum Dilution) Post Immunization R1: 3200
Titre: (Serum Dilution) Pre Immunization R1: 0

LQTPQPLLQVMMEPQGD [Peptide A-1, Colostrinin peptide of unknown precursor]
Titre: (Serum Dilution) Post Immunization R1: 6400
Titre: (Serum Dilution) Pre Immunization R1: 0
antigenic response: significantly lower than expected

DQPPDVEKPDLQPFQVQS [Peptide B-10, Colostrinin peptide (possibly) having β-casein homologue precursor]
Titre: (Serum Dilution) Post Immunization R1: 12800
Titre: (Serum Dilution) Pre Immunization R1: 0

DSQPPV [Peptide B-4]
Titre: (Serum Dilution) Post Immunization R1: 25600
Titre: (Serum Dilution) Pre Immunization R1: 0

VLEMKFPPPPQETVT [Peptide A-3, Colostrinin peptide of unknown precursor]
Titre: (Serum Dilution) Post Immunization R1: 6400
Titre: (Serum Dilution) Pre Immunization R1: 0

LKPFPKLKVEVFPFP [Peptide A-4, Colostrinin peptide of unknown precursor]
Titre: (Serum Dilution) Post Immunization R1: 6400
Titre: (Serum Dilution) Pre Immunization R1: 0

AFLLYQE [Peptide C-12, β-casein precursor peptide, Casein Position 202-208]
Titre: (Serum Dilution) Post Immunization R1: 12800

DPPPPQS [Peptide A-7, Colostrinin peptide of unknown precursor]
Titre: (Serum Dilution) Post Immunization R1: 3400
Titre: (Serum Dilution) Pre Immunization R1: 0
antigenic response: significantly lower than expected

DLEMPVLPVEPFPFV [Peptide B-7, Colostrinin peptide (possibly) having β-casein homologue precursor]
Titre: (Serum Dilution) Post Immunization R1: 25600
Titre: (Serum Dilution) Pre Immunization R1: 0

FPPPK [Peptide B-5]
Titre: (Serum Dilution) Post Immunization R1: 12800
Titre: (Serum Dilution) Pre Immunization R1: 0

VVMEV [Peptide B-6]
Titre: (Serum Dilution) Post Immunization R1: 25600
Titre: (Serum Dilution) Pre Immunization R1: 0

SEQP [Peptide A-5]
Titre: (Serum Dilution) Post Immunization R1: 3200
Titre: (Serum Dilution) Pre Immunization R1: 0

VLPPNVG [Peptide B-1, Colostrinin peptide (possibly) having β-casein homologue precursor]
Titre: (Serum Dilution) Post Immunization R1: 26500
Titre: (Serum Dilution) Pre Immunization R1: 0

LFFFLPVVNVLP [Peptide B-8, Colostrinin peptide (possibly) having β-casein homologue precursor]
Titre: (Serum Dilution) Post Immunization R1: 200
Titre: (Serum Dilution) Pre Immunization R1: 0
antigenic response: significantly lower than expected

ATFNRYQDDHGEEILKSL [Peptide D-1, annexin precursor peptide, Annexin Position 203-220]
Titre: (Serum Dilution) Post Immunization R1: 12800
Titre: (Serum Dilution) Pre Immunization R1: 0
